One data set relates to human keratocytes. Nature of the data set: Scavenger-type anti-oxidizing activity assay (DCA probe, H2O2 oxidative stress). It counts as cell-based. The note with it: 0.05 mg/ml. The source says: Assessment of anti-oxidizing activity of the sample on human cells exposed to chemical-type progressive oxidative stress. The assessment of anti-oxidizing action is obtained from quantification of free radical formation in cells exposed to the sample and to oxidative stress. The method applied is based on the use of the fluorimetric probe 2,7 dichlorofluorescein acetate-DCA-: this probe penetrates into cells, binds to cell membrane proteins and macromolecules. In this form, the probe is not fluorescent, only becoming fluorescent when oxidized by free radicals. Cells pretreated with DCA are exposed to the various dilutions of the sample and hydrogen peroxide. […] Starting from this mother solution, the first dilution was prepared at a concentration of 0.5 mg/ml in saline; therefrom, by applying a 1:2 dilution factor, the other four dilutions were obtained. Positive Control: cells exposed to the 500 μM H2O2 solution. Internal Control: cells exposed to an ascorbic acid solution (0.05 mg/ml). Negative Control: cells exposed to the inoculation medium. The assay was performed on a simple cell model consisting of a monolayer of stabilized human keratocytes (cells were purchased from IZSLER and are guaranteed as free from any viral/bacterial contamination and/or from mycoplasma). […] The same procedure was carried out to obtain the same five dilutions in a 500 μM H2O2 solution in saline. 150 μl per each dilution (in saline and in H2O2) were distributed into four wells on two different plates. Cultured cells were enzymatically detached from the growth medium and counted with an electronic cell counter (Scepter); a cell suspension was prepared (in inoculation medium) at the density of 300,000 cells/ml, which were then distributed into 96-well plates: 100 μl per well, obtaining a seeding density of 30,000 cells per well. Lastly, the plates were placed back to culture in an incubator at 37° C. and 5% CO2-enriched humid atmosphere for the subsequent 24 hours. The inoculation medium was removed, cells were washed once with PBS, then PBS was discarded and 150 μl DCA (4 μM) was distributed in both plates. Then, the plates were placed back in incubator at 37° C. and 5% CO2-enriched atmosphere for 15 minutes. At the end of the DCA incubation period, the solution was removed, and cells were washed once with PBS, then 150 μl of the above-described dilutions of the sample and of the controls were distributed in the plates. Then, free radical formation was measured from T0 (right after inoculation into the two plates) every 20 minutes, up to 100 minutes (5 measurements) with a fluorimeter. At the end of the measurements, after the 100 minutes, the inoculate of both plates was removed and Neutral Red Uptake vitality assay was performed. F.U.: fluorescence unit F.U. positive control: average of F.U. emitted from cells exposed to the H2O2 solution (maximum production of free radicals) F.U. negative control: average of F.U. emitted from cells not exposed to oxidative stress At each time interval of exposure ([NT]5) there were carried out: the average of F.U. emitted from cells exposed to the sample, to vitamin C without oxidative stress, is subtracted from the average of F.U. emitted from cells exposed to the sample, to vitamin C and oxidative stress. In other words, the average values of fluorescence emitted from the non-stressed plate were subtracted from the average values of fluorescence emitted from the stressed plate. […]: cells exposed to the sole sample F.U. Controlpos: cells exposed to the sole oxidative stress F.U. Controlneg: cells exposed to saline without oxidative stress

Data set [1] is described as follows: Stability of the composition (total tannins as pyrogallol, EP 9.2, 2.8.14). The note with it: fluid form (syrup), 40° C. and 75% of relative humidity, six months. It counts as physicochemical. The procedure: The stability of the composition of the invention in fluid form (syrup, as per examples above, at 2) with regard to tannins was assessed by measuring the content of total tannins, expressed as pyrogallol, by means of spectrophotometric method described in European Pharmacopoeia (EP 9.2, 2.8.14) for agrimony.

With `O=C1O[C@H]([C@@H](O)CO)C(O)=C1O` [Vit. C, Ascorbic acid], the “% PROTECTION FROM FREE RADICALS” value in the data set with human keratocytes (20 MIN, 500 μM H2O2) was 57%; in the data set with human keratocytes (40 MIN, 500 μM H2O2) it was 60%; in the data set with human keratocytes (60 MIN, 500 μM H2O2) it was 60%; in the data set with human keratocytes (80 MIN, 500 μM H2O2), 63%; in the data set with human keratocytes (100 MIN, 500 μM H2O2) it was 61%; in the data set on human keratocytes (T0, 500 μM H2O2), 45%. The “FREE RADICAL DEVELOPMENT” value was found to be 5993 in the data set with human keratocytes (20 MIN, 500 μM H2O2); 5721 in the data set on human keratocytes (40 MIN, 500 μM H2O2); 5240 in the data set on human keratocytes (60 MIN, 500 μM H2O2); 4802 in the data set with human keratocytes (80 MIN, 500 μM H2O2); 4937 in the data set on human keratocytes (100 MIN, 500 μM H2O2); 5654 with human keratocytes (T0, 500 μM H2O2). The “stability in fluid form” value in data set [1] (listed as Vitamin C) is reported as “did not exhibit stability beyond T0”; in data set [1] (listed as vitamin C), “markedly unstable”.

The values are drawn from patent US11154564B2, “Composition for cough” (Aboca S.p.A. Società Agricola, priority 2017, dated 2021).
